Assay results as given in EP4603105A1, “PHARMACEUTICAL COMPOSITION CONTAINING CYCLIC COMPOUND HAVING SELECTIVE KRAS INHIBITORY EFFECT AGAINST HRAS AND NRAS” (CHUGAI SEIYAKU KABUSHIKI KAISHA, priority 2022, dated 2024).

Key:
[1] = system: human lung cancer strain NCI-H441; format: cell-based
Outline: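 Readout: […] after the ATP-based reagent. Compound: serial dilutions in dimethyl sulfoxide.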

[2] = biological target: GDP-bound NRAS wild-type protein (Homo sapiens, UniProt P01111); experiment: Binding to NRAS by surface plasmon resonance (SPR), KD and KD ratio to KRAS; settings: ratio of KD for GDP-bound NRAS wild-type protein to KD for KRAS
Outline: (§1)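 GDP-loaded biotinylated Avi-tag RAS proteins (E. coli-expressed) captured on a Biotin CAPture chip at ~100–300 RU; single-cycle kinetics at 30°C, 100 µL/min, 75 s injections of rising compound concentrations. HBS pH 7.4 running buffer with 1 mM DTT, 10 mM MgCl2, 10 µM GDP, 4% DMSO. KD from 1:1 binding fit.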

[3] = biological target: HRAS wild-type protein (Homo sapiens, UniProt P01112); experiment: Binding to HRAS by surface plasmon resonance (SPR), KD and KD ratio to KRAS; settings: ratio of KD for HRAS wild-type protein to KD for KRAS
Outline: as §1

Chain of HRAS wild-type protein (P01112 whole entry): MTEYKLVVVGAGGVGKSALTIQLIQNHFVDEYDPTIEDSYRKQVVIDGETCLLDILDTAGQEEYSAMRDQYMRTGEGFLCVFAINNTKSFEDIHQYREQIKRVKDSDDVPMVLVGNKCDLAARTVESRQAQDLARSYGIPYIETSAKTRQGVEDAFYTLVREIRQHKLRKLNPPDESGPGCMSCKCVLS
Chain of GDP-bound NRAS wild-type protein (P01111 whole entry): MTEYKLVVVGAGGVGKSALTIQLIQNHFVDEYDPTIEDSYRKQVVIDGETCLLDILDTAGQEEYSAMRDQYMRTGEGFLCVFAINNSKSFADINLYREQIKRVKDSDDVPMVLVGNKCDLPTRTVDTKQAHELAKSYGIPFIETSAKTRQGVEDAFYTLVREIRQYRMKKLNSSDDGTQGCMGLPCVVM

SMILES | IC50 [1] [nM] | NRAS /KRAS [2] | HRAS /KRAS [3]
CCO[C@@H]1C[C@H]2C(=O)NC3(CCCC3)C(=O)N(C)[C@@H](C3CCCC3)C(=O)N(C)[C@H](C(=O)N3CCOCC3)CC(=O)N(C)[C@@H](CC(C)C)C(=O)N[C@@H]([C@@H](C)CC)C(=O)N(C)CC(=O)N(C)[C@H]3C[C@@H](C)CCN(C3=O)[C@@H](Cc3ccc(C(F)(F)F)cc3)C(=O)N(C)CC(=O)N[C@@H](CCc3cc(F)c(C(F)(F)F)c(F)c3)C(=O)N2C1 [PP1024] | 12.7 | B (a compound having 3 or more and less than 10 is denoted as B) | B (a compound having 3 or more and less than 10 is denoted as B)
CCO[C@@H]1C[C@H]2C(=O)NC3(CCC3)C(=O)N(C)[C@@H](C3CCCC3)C(=O)N(C)[C@H](C(=O)N3CCOCC3)CC(=O)N(C)[C@@H](CC(C)C)C(=O)N[C@@H]([C@@H](C)CC)C(=O)N(C)CC(=O)N(C)[C@H]3C[C@@H](C)CCN(C3=O)[C@@H](Cc3ccc(C(F)(F)F)cc3)C(=O)N(C)CC(=O)N[C@@H](CCc3cc(F)c(C(F)(F)F)c(F)c3)C(=O)N2C1 [PP1025] | 10.7 | C (A compound having a KD ratio of 0.1 or more and less than 3 is denoted as C) | B (a compound having 3 or more and less than 10 is denoted as B)
CCO[C@@H]1C[C@H]2C(=O)NC3(CCC3)C(=O)N(C)[C@@H](C3CCCC3)C(=O)N(C)[C@H](C(=O)N3CCOCC3)CC(=O)N(C)[C@@H](CC)C(=O)N[C@@H]([C@@H](C)CC)C(=O)N(C)CC(=O)N(C)[C@H]3C[C@@H](C)CCN(C3=O)[C@@H](Cc3ccc(C(F)(F)F)cc3)C(=O)N(C)CC(=O)N[C@@H](CCc3cc(F)c(C(F)(F)F)c(F)c3)C(=O)N2C1 [PP1027] | 7.2 | C (A compound having a KD ratio of 0.1 or more and less than 3 is denoted as C) | B (a compound having 3 or more and less than 10 is denoted as B)
CCO[C@@H]1C[C@H]2C(=O)NC3(CCC3)C(=O)N(C)[C@@H](C3CCCC3)C(=O)N(C)[C@H](C(=O)N3CCOCC3)CC(=O)N(C)[C@@H](CC)C(=O)N[C@@H]([C@@H](C)CC)C(=O)N3CC[C@H]3C(=O)N(C)[C@H]3C[C@@H](C)CCN(C3=O)[C@@H](Cc3ccc(C(F)(F)F)cc3)C(=O)N(C)CC(=O)N[C@@H](CCc3cc(F)c(C(F)(F)F)c(F)c3)C(=O)N2C1 [PP1028] | 17.3 | B (a compound having 3 or more and less than 10 is denoted as B) | B (a compound having 3 or more and less than 10 is denoted as B)
CCO[C@@H]1C[C@H]2C(=O)NC3(CCCC3)C(=O)N(C)[C@@H](C3CCCC3)C(=O)N(C)[C@H](C(=O)N3CCOCC3)CC(=O)N(C)[C@@H](CC)C(=O)N[C@@H]([C@@H](C)CC)C(=O)N(C)CC(=O)N(C)[C@H]3C[C@@H](C)CCN(C3=O)[C@@H](Cc3ccc(C(F)(F)F)cc3)C(=O)N(C)CC(=O)N[C@@H](CCc3cc(F)c(C(F)(F)F)c(F)c3)C(=O)N2C1 [PP1029] | 24.3 | C (A compound having a KD ratio of 0.1 or more and less than 3 is denoted as C) | B (a compound having 3 or more and less than 10 is denoted as B)
CCO[C@@H]1C[C@H]2C(=O)NC3(CCCC3)C(=O)N(C)[C@@H](C3CCCC3)C(=O)N(C)[C@H](C(=O)N(C)C)CC(=O)N(C)[C@@H](CC(C)C)C(=O)N[C@@H]([C@@H](C)CC)C(=O)N(C)CC(=O)N(C)[C@H]3CC(C)=CCN(C3=O)[C@@H](Cc3ccc(C(F)(F)F)cc3)C(=O)N(C)CC(=O)N[C@@H](CCc3cc(F)c(C(F)(F)F)c(F)c3)C(=O)N2C1 [PP1031] | 86.2 | C (A compound having a KD ratio of 0.1 or more and less than 3 is denoted as C) | C (A compound having a KD ratio of 0.1 or more and less than 3 is denoted as C)
CCO[C@@H]1C[C@H]2C(=O)NC3(CCC3)C(=O)N(C)[C@@H](C3CCCC3)C(=O)N(C)[C@H](C(=O)N(C)C)CC(=O)N(C)[C@@H](CC(C)C)C(=O)N[C@@H]([C@@H](C)CC)C(=O)N3CC[C@H]3C(=O)N(C)[C@H]3CC(C)=CCN(C3=O)[C@@H](Cc3ccc(C(F)(F)F)cc3)C(=O)N(C)CC(=O)N[C@@H](CCc3cc(F)c(C(F)(F)F)c(F)c3)C(=O)N2C1 [PP1033] | 67.2 | C (A compound having a KD ratio of 0.1 or more and less than 3 is denoted as C) | C (A compound having a KD ratio of 0.1 or more and less than 3 is denoted as C)
CCO[C@@H]1C[C@H]2C(=O)NC3(CCC3)C(=O)N(C)[C@@H](C3CCCC3)C(=O)N(C)[C@H](C(=O)N(C)C)CC(=O)N(C)[C@@H](CC)C(=O)N[C@@H]([C@@H](C)CC)C(=O)N(C)CC(=O)N(C)[C@H]3CC(C)=CCN(C3=O)[C@@H](Cc3ccc(C(F)(F)F)cc3)C(=O)N(C)CC(=O)N[C@@H](CCc3cc(F)c(C(F)(F)F)c(F)c3)C(=O)N2C1 [PP1034] | 96.8 | C (A compound having a KD ratio of 0.1 or more and less than 3 is denoted as C) | C (A compound having a KD ratio of 0.1 or more and less than 3 is denoted as C)
CCO[C@@H]1C[C@H]2C(=O)NC3(CCC3)C(=O)N(C)[C@@H](C3CCCC3)C(=O)N(C)[C@H](C(=O)N(C)C)CC(=O)N(C)[C@@H](CC)C(=O)N[C@@H]([C@@H](C)CC)C(=O)N3CC[C@H]3C(=O)N(C)[C@H]3CC(C)=CCN(C3=O)[C@@H](Cc3ccc(C(F)(F)F)cc3)C(=O)N(C)CC(=O)N[C@@H](CCc3cc(F)c(C(F)(F)F)c(F)c3)C(=O)N2C1 [PP1035] | 128 | C (A compound having a KD ratio of 0.1 or more and less than 3 is denoted as C) | C (A compound having a KD ratio of 0.1 or more and less than 3 is denoted as C)
CCO[C@@H]1C[C@H]2C(=O)NC3(CCCC3)C(=O)N(C)[C@@H](C3CCCC3)C(=O)N(C)[C@H](C(=O)N(C)C)CC(=O)N(C)[C@@H](CC)C(=O)N[C@@H]([C@@H](C)CC)C(=O)N(C)CC(=O)N(C)[C@H]3CC(C)=CCN(C3=O)[C@@H](Cc3ccc(C(F)(F)F)cc3)C(=O)N(C)CC(=O)N[C@@H](CCc3cc(F)c(C(F)(F)F)c(F)c3)C(=O)N2C1 [PP1036] | 150 | C (A compound having a KD ratio of 0.1 or more and less than 3 is denoted as C) | C (A compound having a KD ratio of 0.1 or more and less than 3 is denoted as C)
CCO[C@@H]1C[C@H]2C(=O)NC3(CCCC3)C(=O)N(C)[C@@H](C3CCCC3)C(=O)N(C)[C@H](C(=O)N3CCOCC3)CC(=O)N(C)[C@@H](CC(C)C)C(=O)N[C@@H]([C@@H](C)CC)C(=O)N(C)CC(=O)N(C)[C@H]3CC(C)=CCN(C3=O)[C@@H](Cc3ccc(C(F)(F)F)cc3)C(=O)N(C)CC(=O)N[C@@H](CCc3cc(F)c(C(F)(F)F)c(F)c3)C(=O)N2C1 [PP1038] | 188 | C (A compound having a KD ratio of 0.1 or more and less than 3 is denoted as C) | C (A compound having a KD ratio of 0.1 or more and less than 3 is denoted as C)
